# Measurements taken from ChEMBL document CHEMBL3352227, “Synthesis, antimycobacterial and antibacterial evaluation of l-[(1R, 2S)-2-fluorocyclopropyl]fluoroquinolone derivatives containing an oxime functional moiety” (Eur J Med Chem, 2014).
# What was measured:
# Type in all cases: functional
# [1] = system: Mycobacterium tuberculosis; assay: Antimycobacterial activity against Mycobacterium tuberculosis H37Rv ATCC 27294 by MABA method
# [2] = system: Escherichia coli; assay: Antibacterial activity against Escherichia coli ATCC 25922 after 18 to 24 hrs by standard twofold serial dilution method
# [3] = system: Escherichia coli; assay: Antibacterial activity against Escherichia coli 12-1 after 18 to 24 hrs by standard twofold serial dilution method
# [4] = system: Escherichia coli; assay: Antibacterial activity against extended-spectrum beta-lactamase producing Escherichia coli 12-2 after 18 to 24 hrs by standard twofold serial dilution method
# [5] = system: Escherichia coli; assay: Antibacterial activity against extended-spectrum beta-lactamase producing Escherichia coli 12-3 after 18 to 24 hrs by standard twofold serial dilution method
# [6] = system: Escherichia coli; assay: Antibacterial activity against extended-spectrum beta-lactamase producing Escherichia coli 12-14 after 18 to 24 hrs by standard twofold serial dilution method
# [7] = system: Escherichia coli; assay: Antibacterial activity against extended-spectrum beta-lactamase producing Escherichia coli 12-15 after 18 to 24 hrs by standard twofold serial dilution method
# [8] = system: Klebsiella pneumoniae; assay: Antibacterial activity against Klebsiella pneumoniae 12-1 after 18 to 24 hrs by standard twofold serial dilution method
# [9] = system: Klebsiella pneumoniae; assay: Antibacterial activity against Klebsiella pneumoniae 12-2 after 18 to 24 hrs by standard twofold serial dilution method
# [10] = system: Klebsiella pneumoniae; assay: Antibacterial activity against Klebsiella pneumoniae 12-4 after 18 to 24 hrs by standard twofold serial dilution method
# [11] = system: Klebsiella pneumoniae; assay: Antibacterial activity against extended-spectrum beta-lactamase producin Klebsiella pneumoniae 12-3 after 18 to 24 hrs by standard twofold serial dilution method
# [12] = system: Klebsiella pneumoniae; assay: Antibacterial activity against extended-spectrum beta-lactamase producin Klebsiella pneumoniae 12-4 after 18 to 24 hrs by standard twofold serial dilution method
# [13] = system: Klebsiella pneumoniae; assay: Antibacterial activity against extended-spectrum beta-lactamase producin Klebsiella pneumoniae 12-7 after 18 to 24 hrs by standard twofold serial dilution method
# [14] = system: Klebsiella pneumoniae; assay: Antibacterial activity against extended-spectrum beta-lactamase producin Klebsiella pneumoniae 12-14 after 18 to 24 hrs by standard twofold serial dilution method
# [15] = system: Pseudomonas aeruginosa; assay: Antibacterial activity against Pseudomonas aeruginosa 12-12 after 18 to 24 hrs by standard twofold serial dilution method
# [16] = system: Pseudomonas aeruginosa; assay: Antibacterial activity against Pseudomonas aeruginosa 12-14 after 18 to 24 hrs by standard twofold serial dilution method
# [17] = system: Staphylococcus aureus; assay: Antibacterial activity against Staphylococcus aureus ATCC 25923 after 18 to 24 hrs by standard twofold serial dilution method
# [18] = system: Staphylococcus aureus; assay: Antibacterial activity against methicillin-sensitive Staphylococcus aureus 12-1 after 18 to 24 hrs by standard twofold serial dilution method
# [19] = system: Staphylococcus aureus; assay: Antibacterial activity against methicillin-sensitive Staphylococcus aureus 12-2 after 18 to 24 hrs by standard twofold serial dilution method
# [20] = system: Staphylococcus aureus; assay: Antibacterial activity against methicillin-sensitive Staphylococcus aureus 12-4 after 18 to 24 hrs by standard twofold serial dilution method
# [21] = system: Staphylococcus aureus; assay: Antibacterial activity against methicillin-sensitive Staphylococcus aureus 12-5 after 18 to 24 hrs by standard twofold serial dilution method
# [22] = system: Staphylococcus aureus; assay: Antibacterial activity against methicillin-resistant Staphylococcus aureus 12-2 after 18 to 24 hrs by standard twofold serial dilution method
# [23] = system: Staphylococcus aureus; assay: Antibacterial activity against methicillin-resistant Staphylococcus aureus 12-4 after 18 to 24 hrs by standard twofold serial dilution method
# [24] = system: Staphylococcus aureus; assay: Antibacterial activity against methicillin-resistant Staphylococcus aureus 12-5 after 18 to 24 hrs by standard twofold serial dilution method
# [25] = system: Staphylococcus epidermidis; assay: Antibacterial activity against methicillin-sensitive Staphylococcus epidermidis 12-1 after 18 to 24 hrs by standard twofold serial dilution method
# [26] = system: Staphylococcus epidermidis; assay: Antibacterial activity against methicillin-sensitive Staphylococcus epidermidis 12-3 after 18 to 24 hrs by standard twofold serial dilution method
# [27] = system: Staphylococcus epidermidis; assay: Antibacterial activity against methicillin-sensitive Staphylococcus epidermidis 12-6 after 18 to 24 hrs by standard twofold serial dilution method
# [28] = system: Staphylococcus epidermidis; assay: Antibacterial activity against methicillin-sensitive Staphylococcus epidermidis 12-8 after 18 to 24 hrs by standard twofold serial dilution method
# [29] = system: Staphylococcus epidermidis; assay: Antibacterial activity against methicillin-resistant Staphylococcus epidermidis 12-1 after 18 to 24 hrs by standard twofold serial dilution method
# [30] = system: Staphylococcus epidermidis; assay: Antibacterial activity against methicillin-resistant Staphylococcus epidermidis 12-6 after 18 to 24 hrs by standard twofold serial dilution method
# [31] = system: Streptococcus pneumoniae; assay: Antibacterial activity against Streptococcus pneumoniae ATCC 49619 after 18 to 24 hrs by standard twofold serial dilution method
# [32] = system: Streptococcus pneumoniae; assay: Antibacterial activity against Streptococcus pneumoniae 12-18 after 18 to 24 hrs by standard twofold serial dilution method
Structure (SMILES),MIC [1] [mg/L],MIC [2] [mg/L],MIC [3] [mg/L],MIC [4] [mg/L],MIC [5] [mg/L],MIC [6] [mg/L],MIC [7] [mg/L],MIC [8] [mg/L],MIC [9] [mg/L],MIC [10] [mg/L],MIC [11] [mg/L],MIC [12] [mg/L],MIC [13] [mg/L],MIC [14] [mg/L],MIC [15] [mg/L],MIC [16] [mg/L],MIC [17] [mg/L],MIC [18] [mg/L],MIC [19] [mg/L],MIC [20] [mg/L],also measured
CO/N=C1/CCN(c2nc3c(cc2F)c(=O)c(C(=O)O)cn3[C@@H]2C[C@@H]2F)CC1N (some centres not stated),4,0.25,8,> 128,16,> 128,> 128,2,1,1,> 128,64,32,> 128,16,128,1,2,2,1,MIC [21]: 2 mg/L; MIC [22]: > 128 mg/L; MIC [23]: > 128 mg/L; MIC [24]: > 128 mg/L; MIC [25]: 1 mg/L; MIC [26]: < 0.008 mg/L; MIC [27]: 1 mg/L; MIC [28]: < 0.008 mg/L; MIC [29]: > 128 mg/L; MIC [30]: 1 mg/L; MIC [31]: 1 mg/L; MIC [32]: 4 mg/L
CO/N=C1/CN(c2nc3c(cc2F)c(=O)c(C(=O)O)cn3[C@@H]2C[C@@H]2F)CC1CN (some centres not stated),0.5,0.06,0.5,128,32,64,> 128,0.25,0.25,0.25,32,0.5,2,64,0.5,8,0.015,0.125,0.125,0.06,MIC [21]: 0.125 mg/L; MIC [22]: 16 mg/L; MIC [23]: 32 mg/L; MIC [24]: 16 mg/L; MIC [25]: 0.125 mg/L; MIC [26]: 0.5 mg/L; MIC [27]: 0.125 mg/L; MIC [28]: 1 mg/L; MIC [29]: 4 mg/L; MIC [30]: 4 mg/L; MIC [31]: 0.125 mg/L; MIC [32]: 0.25 mg/L
CCO/N=C1/CN(c2nc3c(cc2F)c(=O)c(C(=O)O)cn3[C@@H]2C[C@@H]2F)CC1CN (some centres not stated),0.5,< 0.008,0.06,64,16,16,128,0.03,0.06,0.125,16,8,0.125,32,0.125,2,< 0.008,0.015,0.015,0.015,MIC [21]: 0.015 mg/L; MIC [22]: 4 mg/L; MIC [23]: 4 mg/L; MIC [24]: 4 mg/L; MIC [25]: < 0.008 mg/L; MIC [26]: 0.03 mg/L; MIC [27]: 0.015 mg/L; MIC [28]: 0.25 mg/L; MIC [29]: 1 mg/L; MIC [30]: 4 mg/L; MIC [31]: 0.03 mg/L; MIC [32]: 0.06 mg/L
CO/N=C1/CN(c2nc3c(cc2F)c(=O)c(C(=O)O)cn3[C@@H]2C[C@@H]2F)[C@H]1CN,1,0.06,1,128,16,128,> 128,0.25,0.25,0.25,64,8,2,128,2,32,0.125,0.06,0.06,0.03,MIC [21]: 0.06 mg/L; MIC [22]: 32 mg/L; MIC [23]: 32 mg/L; MIC [24]: 32 mg/L; MIC [25]: 0.06 mg/L; MIC [26]: 0.5 mg/L; MIC [27]: 0.06 mg/L; MIC [28]: 2 mg/L; MIC [29]: 4 mg/L; MIC [30]: 4 mg/L; MIC [31]: 0.5 mg/L; MIC [32]: 2 mg/L
CCO/N=C1/CN(c2nc3c(cc2F)c(=O)c(C(=O)O)cn3[C@@H]2C[C@@H]2F)[C@H]1CN,1,0.125,2,> 128,16,128,> 128,0.5,0.5,0.25,128,8,4,64,1,32,0.5,0.5,0.25,0.25,MIC [21]: 0.5 mg/L; MIC [22]: 64 mg/L; MIC [23]: 64 mg/L; MIC [24]: 64 mg/L; MIC [25]: 0.5 mg/L; MIC [26]: 1 mg/L; MIC [27]: 0.25 mg/L; MIC [28]: 16 mg/L; MIC [29]: 16 mg/L; MIC [30]: 16 mg/L; MIC [31]: 0.5 mg/L; MIC [32]: 4 mg/L
NC[C@H]1/C(=N\OCc2ccccc2)CN1c1nc2c(cc1F)c(=O)c(C(=O)O)cn2[C@@H]1C[C@@H]1F,2,0.125,0.25,> 128,32,> 128,> 128,0.5,1,1,> 128,16,4,> 128,4,64,0.125,0.25,0.25,0.125,MIC [21]: 0.25 mg/L; MIC [22]: 64 mg/L; MIC [23]: 32 mg/L; MIC [24]: 32 mg/L; MIC [25]: 0.25 mg/L; MIC [26]: 0.5 mg/L; MIC [27]: 0.25 mg/L; MIC [28]: 8 mg/L; MIC [29]: 16 mg/L; MIC [30]: 8 mg/L; MIC [31]: 0.5 mg/L; MIC [32]: 4 mg/L
